In patent publication US10239902B2, “Stable peptide-conjugated ascorbic acid derivative, method for preparing same, and cosmetic composition comprising same” (CELLTRION INC., priority 2014, dated 2019):
Structures can show the parent of a compound that is named as a salt.

What was measured:
[1] = system: DNA methyltransferase (DNMT); assay: Inhibition of DNA methyltransferase (DNMT) activity, Hela cell nuclear extract; type: biochemical; conditions: 0.5 μg/ml
Description: In order to examine the mechanism of the effect of compound I-1 on the promotion of procollagen synthesis, the inhibitory effect of the compound against DNMT activity was examined using a nuclear extract isolated from Hela cells and a DNA methyltransferase activity/inhibitor screening assay kit. To a strip coated with cystosine-rich DNA, a Hela cell nuclear extract comprising DNMT, compound I-1, and Adomet, were added. As a positive control, 5-aza-2′-deoxycytidine (5-azadC) was used. A capture antibody, which binds to methylated DNA, and a detection antibody, were sequentially added to the strip, after which a developing solution was added to induce a color developing reaction, and then a stop solution was added to stop the reaction. The absorbance at 450 nm was measured, and based on the measured absorbance, the percent inhibition of DNMT activity was calculated using the following equation 1. Inhibition %=[1−(ODinhibitor−ODblank)/(ODcontrol−[…])]×100 Equation 1

[2] = system: B16F1 melanoma cell lines (ATCC CRL-6323); assay: Melanin inhibitory effect in B16F1 melanoma cells; type: cell-based; conditions: for Melanin/Protein Average: 72 hours, B16F1; for Melanin/Protein EX1: replicate EX1; for Melanin/Protein EX2: replicate EX2; for Melanin/Protein EX3: replicate EX3
Description: B16F1 melanoma cell lines (ATCC CRL-6323) were added to a DMEM medium supplemented with 10% fetal bovine serum, 100 U/ml penicillin and 100 μg/ml streptomycin and were cultured under the condition of 37° C. and 5% CO2. After culture, the medium was replaced with DMEM medium (Invitrogen-Gibco-BRL, cells/well), and treated with a suitable amount of a sample solution such that the final concentration of each test compound reached 0 μg/ml, 10 μg/ml, 20 μg/ml or 40 μg/ml. After 72 hours, the medium was removed, and the cells were washed with PBS (phosphate buffered saline), harvested, and dried at 60° C. Next, a melanin extraction solution (1 N NaOH+10% DMSO) was added to the cells which were then lysed at 80° C. Next, the amount of melanin was quantified using synthetic melanin as a standard, and the amount of protein was quantified. The amount of melanin per unit protein was calculated, and expressed as % control value relative to a control.

[3] = system: Human neonatal dermal fibroblast cells; assay: Effect on collagen activation: procollagen production in fibroblasts; type: cell-based; conditions: for Procollagen Average: 48 hours; for Procollagen Ex 1: replicate Ex 1; for Procollagen Ex 2: replicate Ex 2; for Procollagen Ex 3: replicate Ex 3
Description: Human neonatal dermal fibroblast cells (Cascade Co.) were seeded into a 24-well microplate (5×10^4 cells/well) with DMEM medium supplemented with 10% fetal bovine serum, and were cultured under the condition of 37° C. and 5% CO2 for 24 hours. The medium was replaced with serum-free DMEM medium, and the cells were cultured for 24 hours, and treated with each sample solution such that the final concentration of each test compound reached 1 μg/ml or 5 μg/ml. After 48 hours of culture, the cell culture medium was collected, and the amount of procollagen in the medium was measured using a collagen measurement kit (Takara Shuzo Co., Ltd., Japan). Specifically, the collected cell culture medium was added to a 96-well plate having a primary collagen antibody uniformly applied thereto, and was subjected to an antigen-antibody reaction at 37° C. for 3 hours. The cell culture medium was removed from each well which was then washed four times with PBS. A color-developing substance was added to each well and incubated at room temperature for 15 minutes, and then 1 N sulfuric acid solution was added to each well to stop the reaction. The absorbance at 450 nm was measured with a spectrophotometer. A standard curve was prepared using a standard solution, and the absorbance obtained as described above was substituted into the standard curve to thereby determine the production of procollagen in the cell culture medium in which each test compound was added.

[4] = Stability against water and heat (40° C., 75% relative humidity, HPLC); type: physicochemical; conditions: for percentage of the active ingredient relative to the initial value at day 0: 40° C., relative humidity 75%, sealed
Description: The stability of an active ingredient, which is used in cosmetic compositions, after water and heat, is an important factor not only in a preparation process, but also in the long-term storage of the composition. Thus, the stabilities of compounds I-1 and I-2, prepared in Examples 1 and 2, respectively, against water and heat, were measured. Specifically, each of compounds I-1 and I-2 was stored in a sealed state under the severe conditions of temperature of 40° C. and relative humidity of 75%, and the percentage of the active ingredient in each sample after 3, 7, 14 and 28 days relative to the initial value of the active value of the active ingredient at day 0 was analyzed by high-performance liquid chromatography (HPLC).

Molecule	Melanin/Protein Average ([2]; 10 μg/ml) [µg/mg]	Melanin/Protein EX1 ([2]; 10 μg/ml) [µg/mg]	Melanin/Protein EX2 ([2]; 10 μg/ml) [µg/mg]	Melanin/Protein EX3 ([2]; 10 μg/ml) [µg/mg]	Melanin/Protein Average ([2]; 20 μg/ml) [µg/mg]	Melanin/Protein EX1 ([2]; 20 μg/ml) [µg/mg]	Melanin/Protein EX2 ([2]; 20 μg/ml) [µg/mg]	Melanin/Protein EX3 ([2]; 20 μg/ml) [µg/mg]	Procollagen Average ([3]; 1 μg/ml) [ng/mL]	Procollagen Ex 1 ([3]; 1 μg/ml) [ng/mL]	Procollagen Ex 2 ([3]; 1 μg/ml) [ng/mL]	Procollagen Ex 3 ([3]; 1 μg/ml) [ng/mL]	Procollagen Average ([3]; 5 μg/ml) [ng/mL]	Procollagen Ex 1 ([3]; 5 μg/ml) [ng/mL]	Procollagen Ex 2 ([3]; 5 μg/ml) [ng/mL]	Procollagen Ex 3 ([3]; 5 μg/ml) [ng/mL]	percentage of the active ingredient relative to the initial value at day 0 ([4]; 0 day) [%]	percentage of the active ingredient relative to the initial value at day 0 ([4]; 3 days) [%]	percentage of the active ingredient relative to the initial value at day 0 ([4]; 7 days) [%]	percentage of the active ingredient relative to the initial value at day 0 ([4]; 14 days) [%]	also measured
Nc1ncn([C@H]2C[C@H](O)[C@@H](CO)O2)c(=O)n1 [Compound 5-azadC, 5-aza-2′-deoxycytidine, reference compound]	–	–	–	–	–	–	–	–	–	–	–	–	–	–	–	–	–	–	–	–	Inhibition % Average [1]: 78%; Inhibition % Ex 1 ([1]; replicate Ex 1): 88%; Inhibition % Ex 2 ([1]; replicate Ex 2): 91%; Inhibition % Ex 3 ([1]; replicate Ex 3): 60%; Inhibition % Ex 4 ([1]; replicate Ex 4): 57%; Inhibition % Ex 5 ([1]; replicate Ex 5): 88%; Inhibition % Ex 6 ([1]; replicate Ex 6): 85%
NC(N)=NCCC[C@H](N)C(=O)NCC(=O)N[C@@H](CC(=O)O)C(=O)NCCCOP(=O)(O)OC1=C(O)C([C@@H](O)CO)OC1=O (stereo partly drawn) [Compound I-2, (3S)-3-(2-((5)-2-amino-5-((diaminomethylene)amino)pentanamido)acetamido)-4-((3-((((5-((S)-1,2-dihydroxyethyl)-4-hydroxy-2-oxo-2,5-dihydrofuran-3-yl)oxy)(hydroxyl)phosphoryl)oxy)propyl)amino)-4-oxobutanoate hydrochloride]	143.4	133.4	145.1	151.7	134.4	137.9	141.5	123.7	253.1	252.4	243.8	263.1	302.7	298.1	301.6	308.5	100	100.3	100.0	99.8	percentage of the active ingredient relative to the initial value at day 0 ([4]; 28 days): 99.8%; stability under severe conditions (in words) ([4]; 28 days, compared with LAAP (Vitagen)): excellent stability comparable to that of commercially available LAAP (Vitagen)
NCCCOP(=O)(O)OC1=C(O)C([C@@H](O)CO)OC1=O (stereo partly drawn) [LAAP, 3-aminopropyl(5-((S)-1,2-dihydroxyethyl)-4-hydroxy-2-oxo-2,5-dihydrofuran-3-yl)hydrogen phosphate, reference compound]	159.9	148.2	165.8	165.8	137.4	132.4	140.6	139.1	242.3	231.4	251.3	244.1	281.1	268.1	276.1	299.1	100	100.4	100.9	99.9	percentage of the active ingredient relative to the initial value at day 0 ([4]; 28 days): 98.5%
Palmitoyl tripeptide-5 [KVK-Pal, reference compound]	173.3	156.9	189.1	173.8	164.2	151.9	175.7	165.1	244.4	248.9	259.7	224.7	283.6	273.9	295.5	281.3	–	–	–	–	–
